The subject of one series is Coniophora puteana (Cp). Description: Antifungal agar-plate method. It is filed as cell-based. As to conditions: Coniophora puteana, read-out: Antifungal activity (inhibition of mycelial growth); for inhibition of growth at 0.0001 %: concentration 0.0001%; for inhibition of growth at 0.001 %: concentration 0.001%; for inhibition of growth at 0.01 %: concentration 0.01%; for inhibition of growth at 0.1 %: concentration 0.1%. As to the method:
(§1) Fungal strains: Coriolus versicolor (Cv), Poria placenta (Pp), Coniophora puteana (Cp) and Gloeophyllum trabeum (Gt) were used as a test organism for the experimental determination of the antifungal activity of 1–11. The fungus were obtained from the collection of the Department of Wood Chemical Technology, Faculty of Forestry and Wood Technology, Poznań, University of Life Sciences, Poland. The fungal growth rates were measured in 90 mm-diameter plastic dishes using the agar-plate method, described by Ważny and Thorton. Five concentrations of gramine and its derivatives in the range of 0.1% to 0.00001% were studied. The compound was applied on the agar (2% agar and 5% malt-extract) prepared on the Petri dish and previously autoclaved. The combination of the compound and fungus was repeated three times. Given sample was centrally inoculated with a 5 mm diameter disc taken from the submargin of 5-day-old malt agar plates. The plates were incubated in darkness at 21 ± 2 °C and 70 ± 5% relative air humidity. The growth duration was determined by the total coverage of the reference plate. The radius of the area covered by the fungus compared with the reference agar plate was employed to calculate the effective doses, ED50, of preservative concentrations retarding the fungal growth rate by 50%.

A further series concerns Coriolus versicolor (Cv). The experiment in a line: Antifungal agar-plate method. The settings on record: Trametes versicolor, read-out: Antifungal activity (inhibition of mycelial growth); for inhibition of growth at 0.0001 %: concentration 0.0001%; for inhibition of growth at 0.001 %: concentration 0.001%; for inhibition of growth at 0.01 %: concentration 0.01%; for inhibition of growth at 0.1 %: concentration 0.1%. It is filed as cell-based. The procedure:
as §1

Another series concerns Poria placenta (Pp). The experiment in a line: Antifungal agar-plate method. The format is cell-based. As to conditions: read-out: Antifungal activity (inhibition of mycelial growth); for inhibition of growth at 0.0001 %: concentration 0.0001%; for inhibition of growth at 0.001 %: concentration 0.001%; for inhibition of growth at 0.01 %: concentration 0.01%; for inhibition of growth at 0.1 %: concentration 0.1%. The procedure:
as §1

The subject of series [1] is Gloeophyllum trabeum (Gt). Description: Antifungal agar-plate method. As to conditions: Gloeophyllum trabeum, read-out: Antifungal activity (inhibition of mycelial growth); for inhibition of growth at 0.0001 %: concentration 0.0001%; for inhibition of growth at 0.001 %: concentration 0.001%; for inhibition of growth at 0.01 %: concentration 0.01%; for inhibition of growth at 0.1 %: concentration 0.1%. The format is cell-based. As to the method:
as §1

The test system of a further series is Pseudomonas fluorescens. The experiment in a line: Antibacterial well-diffusion method. As to conditions: 0.1 mL of compound in DMSO, 48 h, 27 °C. It is filed as cell-based. As to the method: (§2) The antimicrobial properties of compounds were determined against selected bacteria: Micrococcus luteus, Bacillus subtilis, Escherichia coli and Pseudomonas fluorescens which came from the collection of Pure Cultures of the Facility of Microbiology of the Department of Soil Science and Microbiology of the Poznan University of Life Sciences. The well-diffusion method was used to evaluate the antimicrobial properties of compounds. 6 mL each of liquidized broth medium was poured into sterile Petri dishes and allowed to solidify. After which, two sterile glass rings with a diameter of 0.5 cm were placed on the surface of each plate. Then 20 mL each of liquid broth medium containing suspensions of the tested bacterial strains at a density of 10^7 cells/cm3, obtained from 48-h cultures on broth […], was introduced. After the medium solidified, the glass rings were removed with a pencil, obtaining two wells on each plate. 0.1 mL of compound dissolved in pure dimethyl sulphoxide was introduced into one well, and 0.1 mL of pure dimethyl sulphoxide was introduced into the other well, which was as a control. Each compound was tested in four replicates. The plates were incubated for 48 h in a thermostat at 27 °C for M. luteus, B. subtilis and P. fluorescens cultures, and the E. coli culture at 37 °C. At the end of the incubation, the diameters of growth inhibition of the tested strains were measured using calipers.

For another series, the system named is Escherichia coli. The experiment in a line: Antibacterial well-diffusion method. The settings on record: 0.1 mL of compound in DMSO, 48 h, 37 °C. It is filed as cell-based. The procedure:
as §2

For the next series, the system named is Micrococcus luteus. Description: Antibacterial well-diffusion method. It is filed as cell-based. The settings on record: Micrococus luteus, 0.1 mL of compound in DMSO, 48 h, 27 °C. As to the method: as §2
Background: Agar diffusion results depend on both activity and mobility in agar.

The next series deals with Bacillus subtilis. Description: Antibacterial well-diffusion method. It is filed as cell-based. As to conditions: 0.1 mL of compound in DMSO, 48 h, 27 °C. The procedure: as §2

The structures appear in SMILES notation.

As for `CN(C)Cc1c[nH]c2ccccc12` [Compound 1, gramine, reference compound], the inhibition of growth at 0.0001 % is 41% in the series with Coniophora puteana (Cp), 18% in the series on Coriolus versicolor (Cv), 14% in the series on Poria placenta (Pp) and 12% in [1]. The inhibition of growth at 0.001 % in the series on Coniophora puteana (Cp) was found to be 40%; in the series on Coriolus versicolor (Cv), 22%; with Poria placenta (Pp), 25%; in series [1], 12%. Moreover, the inhibition of growth at 0.01 % with Coniophora puteana (Cp) was 51%; in the series on Coriolus versicolor (Cv), 35%; in the series with Poria placenta (Pp), 40%; in series [1], 17%. Also, the inhibition of growth at 0.1 % (in the series with Coniophora puteana (Cp); with Coriolus versicolor (Cv); in the series on Poria placenta (Pp); in series [1]) was 100% each time. The “Zone of Growth Inhibition” value is on record as 13 mm in the series with Pseudomonas fluorescens, 0 mm with Escherichia coli, 0 mm in the series on Micrococcus luteus and 0 mm in the series on Bacillus subtilis.

As for `c1ccc2c(Cn3ccnc3)c[nH]c2c1` [Compound 2], the inhibition of growth at 0.0001 % in the series on Coniophora puteana (Cp) turned out to be 0%; in the series on Coriolus versicolor (Cv), 0%; with Poria placenta (Pp), 0%; in series [1], 20%. The inhibition of growth at 0.001 % worked out at 0% in the series with Coniophora puteana (Cp), 19% with Coriolus versicolor (Cv), 20% in the series on Poria placenta (Pp) and 20% in series [1]. The inhibition of growth at 0.01 % in the series with Coniophora puteana (Cp) turned out to be 41%; in the series with Coriolus versicolor (Cv) it was 33%; in the series on Poria placenta (Pp), 47%; in [1], 40%. Moreover, the inhibition of growth at 0.1 % (with Coniophora puteana (Cp); in the series on Coriolus versicolor (Cv); with Poria placenta (Pp); in [1]) was 100% each time. The “Zone of Growth Inhibition” value in the series on Pseudomonas fluorescens was found to be 14.7 mm; in the series with Escherichia coli it was 4 mm; with Micrococcus luteus, 21 mm; with Bacillus subtilis, 3.3 mm.

In turn, `CCc1nccn1Cc1c[nH]c2ccccc12` [Compound 4, 3-((2-ethyl-1H-imidazol-1-yl)methyl)-1H-indole] displayed a melting point of 183 to 186 °C. In the series on Coniophora puteana (Cp), the inhibition of growth at 0.0001 % turned out to be 13%, the inhibition of growth at 0.001 % is 15%, the inhibition of growth at 0.01 % was found to be 37% and the inhibition of growth at 0.1 % was found to be 100%. Moreover, in the series on Coriolus versicolor (Cv), the inhibition of growth at 0.0001 % is 6%, the inhibition of growth at 0.001 % worked out at 13%, the inhibition of growth at 0.01 % is 43% and the inhibition of growth at 0.1 % was determined as 100%. Further, in the series on Poria placenta (Pp), the inhibition of growth at 0.0001 % was found to be 16%, the inhibition of growth at 0.001 % was 18%, the inhibition of growth at 0.01 % amounted to 32% and the inhibition of growth at 0.1 % stood at 100%. Besides, in series [1], the inhibition of growth at 0.0001 % is 8%, the inhibition of growth at 0.001 % was 11%, the inhibition of growth at 0.01 % is 30% and the inhibition of growth at 0.1 % was determined as 100%. The “Zone of Growth Inhibition” value in the series with Pseudomonas fluorescens stood at 3 mm. Moreover, the “Zone of Growth Inhibition” value in the series on Escherichia coli is 3.8 mm. The “Zone of Growth Inhibition” value in the series on Micrococcus luteus is on record as 8.8 mm. Moreover, the “Zone of Growth Inhibition” value in the series on Bacillus subtilis is 4.3 mm.

For `CC(C)c1nccn1Cc1c[nH]c2ccccc12` [Compound 5, 3-((2-isopropyl-1H-imidazol-1-yl)methyl)-1H-indole], the melting point was in the range of 183 to 185 °C. In addition, in the series with Coniophora puteana (Cp), the inhibition of growth at 0.0001 % turned out to be 13%, the inhibition of growth at 0.001 % was 14%, the inhibition of growth at 0.01 % was determined as 26% and the inhibition of growth at 0.1 % is 100%. For the same compound, in the series on Coriolus versicolor (Cv), the inhibition of growth at 0.0001 % is 13%, the inhibition of growth at 0.001 % was determined as 12%, the inhibition of growth at 0.01 % came out at 43% and the inhibition of growth at 0.1 % was found to be 100%. Also, in the series with Poria placenta (Pp), the inhibition of growth at 0.0001 % came out at 1%, the inhibition of growth at 0.001 % was determined as 6%, the inhibition of growth at 0.01 % amounted to 21% and the inhibition of growth at 0.1 % came to 100%. Moreover, in series [1], the inhibition of growth at 0.0001 % is 12%, the inhibition of growth at 0.001 % worked out at 16%, the inhibition of growth at 0.01 % is 17% and the inhibition of growth at 0.1 % was 100%. Also, in the series with Pseudomonas fluorescens, the “Zone of Growth Inhibition” value is recorded as 0 mm. Moreover, the “Zone of Growth Inhibition” value in the series with Escherichia coli worked out at 3 mm. In the series on Micrococcus luteus, the “Zone of Growth Inhibition” value was 3 mm. Moreover, the “Zone of Growth Inhibition” value with Bacillus subtilis came out at 1.8 mm.

`CCc1nc(C)cn1Cc1c[nH]c2ccccc12` [Compound 6, 3-((2-ethyl-4-methyl-1H-imidazol-1-yl)methyl)-1H-indole] came in with a melting point of 186 to 189 °C. In the series on Coniophora puteana (Cp), the inhibition of growth at 0.0001 % was determined as 40%, the inhibition of growth at 0.001 % worked out at 37%, the inhibition of growth at 0.01 % is 49% and the inhibition of growth at 0.1 % worked out at 100%. In addition, in the series with Coriolus versicolor (Cv), the inhibition of growth at 0.0001 % was found to be 19%, the inhibition of growth at 0.001 % is 19%, the inhibition of growth at 0.01 % is 44% and the inhibition of growth at 0.1 % is 100%. In the series on Poria placenta (Pp), the inhibition of growth at 0.0001 % is 4%, the inhibition of growth at 0.001 % is 0%, the inhibition of growth at 0.01 % worked out at 41% and the inhibition of growth at 0.1 % was 100%. For the same compound, in series [1], the inhibition of growth at 0.0001 % was 13%, the inhibition of growth at 0.001 % was 9%, the inhibition of growth at 0.01 % is 27% and the inhibition of growth at 0.1 % was 100%. The “Zone of Growth Inhibition” value with Pseudomonas fluorescens is given as 2.3 mm. Further, the “Zone of Growth Inhibition” value in the series with Escherichia coli came to 3.5 mm. Besides, the “Zone of Growth Inhibition” value in the series with Micrococcus luteus worked out at 6 mm. Besides, the “Zone of Growth Inhibition” value in the series with Bacillus subtilis was found to be 2.4 mm.

In general, inhibition of growth refers to the relative decrease from the control value, in per cent. One may read the melting point as the temperature, or range, at which the solid turns liquid.

The record behind these values is article PMC9867442, “Indole Derivatives Bearing Imidazole, Benzothiazole-2-Thione or Benzoxazole-2-Thione Moieties—Synthesis, Structure and Evaluation of Their Cytoprotective, Antioxidant, Antibacterial and Fungicidal Activities” (Molecules, 2023).
